Article PMC7343746, “(2S, 4R)-4-[^18F]Fluoroglutamine for In vivo PET Imaging of Glioma Xenografts in Mice: an Evaluation of Multiple Pharmacokinetic Models” (Molecular Imaging and Biology, 2020)
Where “and” joins values, the source holds several entries; their conditions need not be identical. Equal entries are not always repeated.

What was measured:
[1] = system: patient-derived BT3 glioma cells; test: In vivo PET imaging of orthotopic glioma xenografts; design: species or system BALB/cOlaHsd-Foxn1^nu mouse; conditions: for PET TBRmean: orthotopic glioma
Description: The intracranial glioma model was made by injecting female BALB/cOlaHsd-Foxn1^nu (athymic nude, Institute of Animal Genetics, Edinburgh, UK) mice with patient-derived BT3 glioma cells labeled with luciferase into the frontal right hemisphere of the brain at 9 weeks old. Tumors were monitored for growth via in vivo bioluminescence detection and subjects PET imaged after 12 days.
One to two mice were imaged at a time while under 2 % isoflurane anesthesia with an Inveon multimodality small animal PET/CT scanner (Siemens Medical Solutions, Munich, Germany) commencing with an attenuation CT scan to correct the PET scan data. Ten to twelve megabequerels of the tracer was injected into the tail vein, and the subject(s) were imaged over a 60-min period in list mode dividing framing into 6 × 10 s, 4 × 60 s, 5 × 300 s, 3 × 600 s. Obtained sinograms were reconstructed using the ordered-subset expectation maximization 2-dimensional algorithm to obtain the final PET images and back-corrected for radionuclide decay.
Image analysis was performed using CARIMAS software published and freely distributed by the Turku PET Center (http://turkupetcentre.fi/carimas/). CT scans were used as rough anatomical reference while tumor regions of interest (ROI) were hand-drawn based upon observed spikes of radioactivity in the PET images at locations correlating with recorded tumor grafts. Control muscle ROIs were drawn on the side opposite to the tumor in the leg flank muscle (based on CT) while the blood ROI was drawn based upon heart anatomical location and observed PET image radioactivity spike during the initial 20 s of imaging in the left ventricle. […] Mean and maximum TBR values were reported as ROI radioactivity per volume divided by mean background radioactivity per volume. The blood radioactivity SUV and gender-specific metabolite-corrected blood radioactivity SUV were then applied to multiple pharmacokinetic models to characterize the flux of the tracer (further described in the “Modeling” section).

rat BT4C glioma cells [2] = test: Logan plot (reversible uptake model), subcutaneous model; type: in vivo, Foxn1^nu/nu mouse; conditions: for AB distribution volume: arterial blood input; for PC distribution volume: plasma-corrected input; for Logan DV (AB) distribution volume / Logan Ic (AB) y intercept: AB input; for Logan DV (PC) distribution volume / Logan IC (PC) y intercept: PC input
Experimental: (§1) Image analysis was performed using CARIMAS software published and freely distributed by the Turku PET Center (http://turkupetcentre.fi/carimas/). CT scans were used as rough anatomical reference while tumor regions of interest (ROI) were hand-drawn based upon observed spikes of radioactivity in the PET images at locations correlating with recorded tumor grafts. Control muscle ROIs were drawn on the side opposite to the tumor in the leg flank muscle (based on CT) while the blood ROI was drawn based upon heart anatomical location and observed PET image radioactivity spike during the initial 20 s of imaging in the left ventricle. Standardized uptake values (SUV) were calculated with respect to ROI volume, mean and max tumor radioactivity, total injected radioactivity dose (corrected for tail, cannula, and syringe residual radioactivity), and animal weight, and were additionally presented as tumor-to-background ratio (TBR, tumor-to-healthy brain region for intracranial gliomas and tumor-to-muscle for subcutaneous gliomas) as defined by recent glioma research literature standards. Mean and maximum TBR values were reported as ROI radioactivity per volume divided by mean background radioactivity per volume. The blood radioactivity SUV and gender-specific metabolite-corrected blood radioactivity SUV were then applied to multiple pharmacokinetic models to characterize the flux of the tracer (further described in the “Modeling” section).
(§2) Using the heart’s left ventricle ROI from the PET data as an uncorrected radioactivity level input and the bioavailable parent-tracer fraction (results: Eqs. 3 and 4 applied to the uncorrected input) as the corrected input, multiple models were investigated to characterize the tissue uptake dynamics. Two-compartment modeling and Logan, Patlak, and Yokoi plots were used to separately model the pharmacokinetics for the gliomas (both subcutaneous and orthotopic loci) and their respective control tissues (healthy muscle and healthy brain, respectively). Where indicated, means plus/minus standard deviations are reported. Difference in parameters for uncorrected versus correct and target tissue versus their respective control regions were tested with students’ paired t tests with P values lower than 0.05 being considered significant.

rat BT4C glioma cells [3] = test: Yokoi plot, subcutaneous model; type: in vivo, Foxn1^nu/nu mouse; conditions: for Yokoi K1 (AB) plasma to tissue transport rate / Yokoi K1/k2 (AB) binding potential / Yokoi k2 (AB) tissue to plasma transport rate: AB input; for Yokoi K1 (PC) plasma to tissue transport rate / Yokoi K1/k2 (PC) binding potential / Yokoi k2 (PC) tissue to plasma transport rate: PC input
Experimental: as §1, §2

[4] = Bone (femoral condyle) average (n = 6)

Compound: NC(=O)[C@H]([18F])C[C@H](N)C(=O)O [[^18F]FGln, (2S, 4R)-4-[^18F]fluoroglutamine]
- PET TBRmean ([1]; Subject A): 4.8
- PET TBRmean ([1]; Subject B): 3.6
- PET image tumor-to-healthy brain region ratio ([1]; orthotopic human glioma xenografts): 3.6 and 4.8
- AB distribution volume (rat BT4C glioma cells [2]; Bone (femoral condyle) (n = 6)): 5.11 ± 2.19
- PC distribution volume (rat BT4C glioma cells [2]; Bone (femoral condyle) (n = 6)): 13.47 ± 7.70
- Logan DV (AB) distribution volume (rat BT4C glioma cells [2]; [4]): 5.11 ± 2.19
- Logan Ic (AB) y intercept (rat BT4C glioma cells [2]; [4]): -66.36 ± 26.46
- Logan DV (PC) distribution volume (rat BT4C glioma cells [2]; [4]): 13.47 ± 7.70
- Logan IC (PC) y intercept (rat BT4C glioma cells [2]; [4]): -142.79 ± 84.46
- AB distribution volume (rat BT4C glioma cells [2]; Flank muscle (n = 6)): 0.77 ± 0.13
- PC distribution volume (rat BT4C glioma cells [2]; Flank muscle (n = 6)): 1.38 ± 0.23
- Logan DV (AB) distribution volume (rat BT4C glioma cells [2]; Flank muscle average (n = 6)): 0.77 ± 0.13
- Logan Ic (AB) y intercept (rat BT4C glioma cells [2]; Flank muscle average (n = 6)): -15.28 ± 5.34
- Logan DV (PC) distribution volume (rat BT4C glioma cells [2]; Flank muscle average (n = 6)): 1.38 ± 0.23
- Logan IC (PC) y intercept (rat BT4C glioma cells [2]; Flank muscle average (n = 6)): -27.58 ± 7.76
- AB distribution volume (rat BT4C glioma cells [2]; Flank tumor (n = 6)): 1.13 ± 0.09
- PC distribution volume (rat BT4C glioma cells [2]; Flank tumor (n = 6)): 1.96 ± 0.15
- Logan DV (AB) distribution volume (rat BT4C glioma cells [2]; Flank tumor average (n = 6)): 1.13 ± 0.09
- Logan Ic (AB) y intercept (rat BT4C glioma cells [2]; Flank tumor average (n = 6)): -10.31 ± 3.60
- Logan DV (PC) distribution volume (rat BT4C glioma cells [2]; Flank tumor average (n = 6)): 1.96 ± 0.15
- Logan IC (PC) y intercept (rat BT4C glioma cells [2]; Flank tumor average (n = 6)): -19.79 ± 4.89
- AB distribution volume (rat BT4C glioma cells [2]; Neck tumor (n = 6)): 1.21 ± 0.08
- PC distribution volume (rat BT4C glioma cells [2]; Neck tumor (n = 6)): 2.08 ± 0.13
- Logan DV (AB) distribution volume (rat BT4C glioma cells [2]; Neck tumor average (n = 6)): 1.21 ± 0.08
- Logan Ic (AB) y intercept (rat BT4C glioma cells [2]; Neck tumor average (n = 6)): -7.63 ± 2.79
- Logan DV (PC) distribution volume (rat BT4C glioma cells [2]; Neck tumor average (n = 6)): 2.08 ± 0.13
- Logan IC (PC) y intercept (rat BT4C glioma cells [2]; Neck tumor average (n = 6)): -16.47 ± 3.85
- Yokoi K1 (AB) plasma to tissue transport rate (rat BT4C glioma cells [3]; [4]): 0.075 ± 0.013 mL min-1 mL-1
- Yokoi K1/k2 (AB) binding potential (rat BT4C glioma cells [3]; [4]): 5.48 ± 2.21 mL mL-1
- Yokoi k2 (AB) tissue to plasma transport rate (rat BT4C glioma cells [3]; [4]): 0.017 ± 0.012 min⁻¹
- Yokoi K1 (PC) plasma to tissue transport rate (rat BT4C glioma cells [3]; [4]): 0.086 ± 0.015 mL min-1 mL-1
- Yokoi K1/k2 (PC) binding potential (rat BT4C glioma cells [3]; [4]): 37.68 ± 39.62 mL mL-1
- Yokoi k2 (PC) tissue to plasma transport rate (rat BT4C glioma cells [3]; [4]): 0.005 ± 0.006 min⁻¹
- Yokoi K1 (AB) plasma to tissue transport rate (rat BT4C glioma cells [3]; Flank muscle average (n = 6)): 0.057 ± 0.023 mL min-1 mL-1
- Yokoi K1/k2 (AB) binding potential (rat BT4C glioma cells [3]; Flank muscle average (n = 6)): 0.76 ± 0.13 mL mL-1
- Yokoi k2 (AB) tissue to plasma transport rate (rat BT4C glioma cells [3]; Flank muscle average (n = 6)): 0.074 ± 0.028 min⁻¹
- Yokoi K1 (PC) plasma to tissue transport rate (rat BT4C glioma cells [3]; Flank muscle average (n = 6)): 0.054 ± 0.017 mL min-1 mL-1
- Yokoi K1/k2 (PC) binding potential (rat BT4C glioma cells [3]; Flank muscle average (n = 6)): 1.37 ± 0.23 mL mL-1
- Yokoi k2 (PC) tissue to plasma transport rate (rat BT4C glioma cells [3]; Flank muscle average (n = 6)): 0.039 ± 0.013 min⁻¹
- Yokoi K1 (AB) plasma to tissue transport rate (rat BT4C glioma cells [3]; Flank tumor average (n = 6)): 0.121 ± 0.039 mL min-1 mL-1
- Yokoi K1/k2 (AB) binding potential (rat BT4C glioma cells [3]; Flank tumor average (n = 6)): 1.13 ± 0.09 mL mL-1
- Yokoi k2 (AB) tissue to plasma transport rate (rat BT4C glioma cells [3]; Flank tumor average (n = 6)): 0.106 ± 0.029 min⁻¹
- Yokoi K1 (PC) plasma to tissue transport rate (rat BT4C glioma cells [3]; Flank tumor average (n = 6)): 0.105 ± 0.027 mL min-1 mL-1
- Yokoi K1/k2 (PC) binding potential (rat BT4C glioma cells [3]; Flank tumor average (n = 6)): 1.95 ± 0.15 mL mL-1
- Yokoi k2 (PC) tissue to plasma transport rate (rat BT4C glioma cells [3]; Flank tumor average (n = 6)): 0.054 ± 0.011 min⁻¹
- Yokoi K1 (AB) plasma to tissue transport rate (rat BT4C glioma cells [3]; Neck tumor average (n = 6)): 0.179 ± 0.076 mL min-1 mL-1
- Yokoi K1/k2 (AB) binding potential (rat BT4C glioma cells [3]; Neck tumor average (n = 6)): 1.21 ± 0.08 mL mL-1
- Yokoi k2 (AB) tissue to plasma transport rate (rat BT4C glioma cells [3]; Neck tumor average (n = 6)): 0.146 ± 0.056 min⁻¹
- Yokoi K1 (PC) plasma to tissue transport rate (rat BT4C glioma cells [3]; Neck tumor average (n = 6)): 0.135 ± 0.039 mL min-1 mL-1
